Key:
[1] = target: T1, Phosphotyrosine-protein phosphatase PTPB (Mycobacterium tuberculosis) (UniProt P96830); experiment: Inhibition of Mycobacterium tuberculosis PTPB expressed in Escherichia coli BL21 (DE3) assessed as residual activity at 100 uM using p-nitrophenyl phosphate as substrate relative to control
T1 sequence (whole entry): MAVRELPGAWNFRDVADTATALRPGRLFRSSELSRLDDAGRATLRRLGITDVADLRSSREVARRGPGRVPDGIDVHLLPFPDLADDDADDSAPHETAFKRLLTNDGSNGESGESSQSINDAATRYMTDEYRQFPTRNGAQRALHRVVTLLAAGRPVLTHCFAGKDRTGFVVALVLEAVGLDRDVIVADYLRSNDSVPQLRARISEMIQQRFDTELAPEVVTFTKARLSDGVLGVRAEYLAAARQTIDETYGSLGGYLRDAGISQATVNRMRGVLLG

[2] = target: T2, Phosphotyrosine-protein phosphatase PTPB (Mycobacterium tuberculosis, UniProt P96830); experiment: Inhibition of Mycobacterium tuberculosis PTPB expressed in Escherichia coli BL21 (DE3) assessed as residual activity
T2 sequence (P96830 whole entry): T1 sequence (whole entry)

[3] = target: T2, Phosphotyrosine-protein phosphatase PTPB; experiment: Inhibition of Mycobacterium tuberculosis PTPB expressed in Escherichia coli BL21 (DE3) in presence of DTT by PAINS assay
[4] = target: T2, Phosphotyrosine-protein phosphatase PTPB; experiment: Inhibition of Mycobacterium tuberculosis PTPB expressed in Escherichia coli BL21 (DE3) in presence of BSA by PAINS assay
[5] = Cytotoxicity against human MRC5 cells assessed as reduction in cell viability at 200 to 0.02 uM measured after 96 hrs; format: toxicity, cell-based
[6] = Cytotoxicity against human WI-38 cells assessed as reduction in cell viability at 200 to 0.02 uM measured after 96 hrs; format: toxicity, cell-based

O=C1OC(c2ccccc2C(F)(F)F)C(c2ccc3ccccc3n2)=C1O (stereo in doubt; 1-E1) [listing 1 of 2 here]
Activity [1]: 14.2%

CC1(C)Cc2c(sc(NC(=O)C(=O)O)c2C(=O)O)CO1
Activity [1]: 104%

O=C(O)c1cc(-c2cc(Cl)ccc2Cl)[nH]n1
Activity [1]: 109%

O=C1OC(c2ccccc2C(F)(F)F)C(c2ccc3ccccc3n2)=C1O (stereo in doubt; 1-E2) [listing 1 of 2 here]
Activity [1]: 27.7%

COc1cccc(C2CC(O)=Nc3c(C(=O)O)cn(-c4cccc(F)c4)c32)c1OC (stereo not drawn)
Activity [1]: 101%

CCOC(=O)c1c(NC(=O)C(=O)O)sc2c1CCCC2
Activity [1]: 69.5%

Cc1onc(C(=O)O)c1-c1cccc(-c2cc(Cl)c(O)c(Cl)c2)c1
Activity [1]: 10.9% | IC50 [2]: 25.8 µM

O=C1OC(c2ccccc2C(F)(F)F)C(c2ccc3ccccc3n2)=C1O (stereo in doubt; 1-E1) [listing 2 of 2 here]
IC50 [2]: 31.1 µM

CC(C)c1nnc(NC(=O)C(=O)O)s1
Activity [1]: 87.2%

O=C1OC(c2ccccc2C(F)(F)F)C(c2ccc3ccccc3n2)=C1O (stereo in doubt; 1-E2) [listing 2 of 2 here]
IC50 [2]: 72.2 µM

O=C(O)C(=O)/C(=C/c1ccccc1C(F)(F)F)c1ccc2ccccc2n1
Activity [1]: 24.3% | IC50 [2]: 48.1 µM | IC50 [3]: 47 µM | IC50 [4]: 51.6 µM | IC50 at 96 h [5]: > 200 µM | IC50 at 96 h [6]: > 200 µM

Cc1nc(-c2cccnc2-n2cnc(C(=O)O)c2)no1
Activity [1]: 83.2%

Reference: ChEMBL document CHEMBL5154801, “Virtual screening and crystallographic studies reveal an unexpected γ-lactone derivative active against MptpB as a potential antitubercular agent” (Eur J Med Chem, 2022)
